The source of these data is patent publication US20060281817A1, “Treatment for neurodegenerative diseases” (priority 2005, published 2006).

For experiment [1], the system named is MN9D cells, vector only (control cells). Briefly: Cell death (propidium iodide, flow cytometry), cells with empty vector. Conditions: Vector only construct. Type of experiment: cell-based. The text has this:
(§1) Parkinson's disease (PD) is characterized by the presence of aggregates (Lewy bodies) composed of alpha-synculein and other cellular proteins within neurons. (Paleologou; Gandhi) These aggregates are believed to be a critical factor in the death of the neuron and in the etiology of PD (Paleologou; Schrag). Mutated alpha-synuclein, as observed in those individuals with familial PD caused by synculein mutations, causes increased aggregate formation (Paleologou). A cell culture model is used to study alpha-synuclein aggregate formation in vitro. This model was created by using molecular biological techniques to transfect a dopaminergic cell line with DNA constructs that, when expressed, generate large amounts of normal alpha-synuclein (over-expressed) or mutated human alpha synuclein within the cells essentially as described by Perez et al (Perez). […] These cells were then treated with Difluoromethylornithine (DFMO) to test the ability of this agent to reduce cell death.
(§2) Compared to control cells, treatment with DFMO (100-500 uM) increased survival in cells over-expressing alpha synuclein and in cells expressing mutated alpha synuclein by up to 54%.
On the technique in general: In flow cytometry, cells or beads pass a laser one at a time.

Experiment [2] has as its system MN9D cells over-expressing human alpha synuclein (wild type). Briefly: Cell death (propidium iodide, flow cytometry), cells over-expressing alpha synuclein. Type of experiment: cell-based.
Description: as §1, §2

Experiment [3] concerns Huntington's disease (HD) mice. Briefly: Rotorod motor function test in HD mice. In kind it is in vivo. Conditions: treated HD mice vs untreated HD mice, day 93 and day 105 after birth. The method, then:
This example was carried out as schematically illustrated in FIG. 1.
(The rotarod test checks motor coordination on a turning rod.)

Experiment [4] relates to MN9D cells expressing human A53T alpha-synuclein mutant. The experiment in a line: Cell death (propidium iodide, flow cytometry), cells expressing mutated alpha synuclein. Type of experiment: cell-based. As to conditions: Mutated alpha synuclein construct.
Description: as §1, §2

Where [5] appears, read: represents % cells rescued by DFMO, 100 um.

On to `NCCC[C@](N)(C(=O)O)C(F)F` [DFMO, Alpha-difluoromethylornithine], for which the “% Dead Cells (DFMO)” value was found to be 30.2% in experiment [1] (DFMO-treated); 29.8% in experiment [2] (Alpha-synuclein construct, DFMO-treated); 38.1% in experiment [4] (DFMO-treated). The “Reduction in % dead cells with DFMO” value in experiment [1] (setting [5]) was determined as 9.6%. Moreover, the “% rescue compared to vector control for DFMO treated cells” value is given as 54% in experiment [2] (Alpha-synuclein construct) and 40% in experiment [4]. For the same compound, in experiment [2] (Alpha-synuclein construct, represents % cells rescued by DFMO, 100 um), the “% Dead Cells minus % DFMO-treated cells (100 um)” value is reported as 15%. In addition, in experiment [2] (DFMO 100-500 uM, cells over-expressing alpha synuclein and cells expressing mutated alpha synuclein), the “Increased survival compared to control cells” value is “up to 54%”. In addition, the Rotorod motor function entry in experiment [3] is on record as “better”. Also, in experiment [4] (setting [5]), the “Reduction in % dead cells with DFMO (100 uM)” value turned out to be 13.5%.
